Test results reported in patent US12378211B2, “Carbonic anhydrase inhibitors and antibiotics against multidrug resistant bacteria” (Purdue Research Foundation, priority 2018, dated 2025).
Read-outs that look alike come from different tables or passages of the source.

Key:
[1] = system: Bacteroides fragilis—CL07T00C01 HIM-709; assay: MIC against human normal gut microbiota; type: cell-based; conditions: BHIS broth, anaerobic, 48 hours
Method: (§1) Three different bacterial strains were used in this experiment; Bifidobacterium (anaerobic Gram positive bacteria), Bacteroides (anaerobic Gram negative bacteria) and Lactobacillus (microaerophilic Gram positive bacteria). Bifidobacterium and Bacteroides were first grown for 48 hours at 37° C., anaerobically using brain heart infusion supplemented (BHIS) agar (Brain heart infusion agar supplemented with hemin, vitamin K and L-cysteine). Lactobacillus was cultivated on MRS agar and incubated in presence of 5% CO2 for 48 hours at 37° C. Each bacterium was suspended in phosphate buffered saline (PBS) to produce a suspension with optical density that matches 0.5 McFarland standard and diluted in brain heart infusion supplemented broth (for Bifidobacterium and Bacteroides) or in MRS broth (for Lactobacillus) to achieve bacterial concentration of approximately 5×10^5 CFU/ml. Bacteria were then seeded in 96-well plates containing serial dilutions of the compounds and incubated as mentioned previously for 48 hours.

[2] = system: Bifidobacterium longum subsp. Longum—44B HM 845; assay: MIC against human normal gut microbiota; type: cell-based; conditions: BHIS broth, anaerobic, 48 hours
Method: as §1

[3] = system: Lactobacillus gasseri EX336960VC03 HIM-400; assay: MIC against human normal gut microbiota; type: cell-based; conditions: MRS broth, 5% CO2, 48 hours
Method: as §1

[4] = system: Lactobacillus casei ATCC 334; assay: MIC against human normal gut microbiota; type: cell-based; conditions: MRS broth, 5% CO2, 48 hours
Method: as §1

[5] = system: Bacteroides dorei—CL02T12C06 HM-719; assay: MIC against human normal gut microbiota; type: cell-based; conditions: BHIS broth, anaerobic, 48 hours
Method: as §1

[6] = system: Bifidobacterium breve—JCP7499 HIM 1120; assay: MIC against human normal gut microbiota; type: cell-based; conditions: BHIS broth, anaerobic, 48 hours
Method: as §1

[7] = system: Mutant-14 of Enterococcus fecalis NR 31975; assay: microbe, parasite or virus in culture; type: cell-based
[8] = system: Mutant-2 of Enterococcus fecalis NR 31975; assay: microbe, parasite or virus in culture; type: cell-based
[9] = system: Mutant-15 of Enterococcus fecalis NR 31975; assay: microbe, parasite or virus in culture; type: cell-based
[10] = system: Mutant-6 of Enterococcus fecalis NR 31975; assay: microbe, parasite or virus in culture; type: cell-based
[11] = system: Staphylococcus epidermidis NRS 101; assay: MIC against Staphylococci, broth microdilution; type: cell-based; conditions: TSB
Method: (§2) The minimum inhibitory concentrations (MICs) of the compounds and control drugs were determined using the broth microdilution method, according to guidelines outlined by the Clinical and Laboratory Standards Institute (CLSI) 1. Staphylococci strains were grown aerobically overnight on tryptone soya agar plates at 37° C., afterwards a bacterial solution equivalent to 0.5 McFarland standard was prepared and diluted in tryptone soy broth (TSB) to achieve a bacterial concentration of about 5×10^5 CFU/mL and seeded in 96-well well plates. Compounds and control drugs were added in the first row of the 96-well plates and serially diluted along the plates. Plates were then incubated aerobically at 37° C. for 18-20 hours. MICs reported in Table 2 are the minimum concentration of the compounds/control drugs that could inhibit completely the visual growth of the bacteria.

[12] = system: Mutant-5 of Enterococcus fecalis NR 31975; assay: microbe, parasite or virus in culture; type: cell-based
[13] = system: Mutant-7 of Enterococcus fecalis NR 31975; assay: microbe, parasite or virus in culture; type: cell-based
[14] = system: Mutant-13 of Enterococcus fecalis NR 31975; assay: microbe, parasite or virus in culture; type: cell-based
[15] = system: Mutant-4 of Enterococcus fecalis NR 31975; assay: microbe, parasite or virus in culture; type: cell-based
[16] = system: Enterococcus fecalis Strain SF 28073-NR31972; assay: MIC, broth microdilution in TSB; type: cell-based; conditions: TSB
Summary of the method: (§3)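 Overnight 37° C agar cultures → 0.5 McFarland → ~5×10^5 CFU/mL in broth; compounds serially diluted; aerobic 37° C, 18-20 h; endpoint is lowest concentration without visible growth.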

[17] = system: Enterococcus faecium Patient #2-1-NR-31909; assay: MIC, broth microdilution in TSB; type: cell-based; conditions: TSB
Summary of the method: as §3

[18] = system: Enterococcus faecium Patient #3-1 NR-31912; assay: MIC, broth microdilution in TSB; type: cell-based; conditions: TSB
Summary of the method: as §3

[19] = system: Enterococcus fecalis Strain SF24413 NR31971; assay: MIC, broth microdilution in TSB; type: cell-based; conditions: TSB
Summary of the method: as §3

[20] = system: Enterococcus faecalis—S613 HM-334; assay: MIC, broth microdilution in TSB; type: cell-based; conditions: TSB
Summary of the method: as §3

[21] = system: Enterococcus faecium E417-HM-965; assay: MIC, broth microdilution in TSB; type: cell-based; conditions: TSB
Summary of the method: as §3

[22] = system: Enterococcus fecalis Strain SF 24397 NR31970; assay: MIC, broth microdilution in TSB; type: cell-based; conditions: TSB
Summary of the method: as §3

[23] = system: Enterococcus fecalis Strain MMH594-NR31975; assay: MIC, broth microdilution in TSB; type: cell-based; conditions: TSB
Summary of the method: as §3

[24] = system: MRSA NRS 384 (MRSA USA300); assay: MIC against Staphylococci, broth microdilution; type: cell-based, Staphylococcus aureus; conditions: TSB
Method: as §2

[25] = system: Mutant-9 of Enterococcus fecalis NR 31975; assay: microbe, parasite or virus in culture; type: cell-based
[26] = Bifidobacterium longum, read-out: MIC
[27] = Lactobacillus gasseri, read-out: MIC
[28] = Lacticaseibacillus casei, ATCC334, read-out: MIC
[29] = Staphylococcus epidermidis, NRS101, read-out: MIC
[30] = Enterococcus, Table 1, read-out: MIC
[31] = Enterococcus, Table 7, read-out: MIC in TSB
[32] = Enterococcus faecium, Table 1, read-out: MIC
[33] = Enterococcus faecium, Table 7, read-out: MIC in TSB
[34] = Enterococcus faecium, E417HM965, Table 1, read-out: MIC
[35] = Enterococcus faecium, E417HM965, Table 7, read-out: MIC in TSB
[36] = Staphylococcus aureus, read-out: MIC

CC(C)=CC(=O)Nc1nnc(S(N)(=O)=O)s1 [CAI0016, 3-Methyl-N-(5-sulfamoyl-1,3,4-thiadiazol-2-yl) but-2-enamide]
>64 µg/mL: MIC [1] | MIC [2] | MIC [3] | MIC [4] | MIC [5] | MIC [6] | MIC [11] | MIC [24]
16 µg/mL: MIC ([10]; Mutant-6)
0.5 µg/mL: MIC ([16]; Table 1) | MIC in TSB ([16]; Table 7) | MIC ([17]; Table 1) | MIC in TSB ([18]; Table 7) | MIC ([19]; Table 1) | MIC in TSB ([19]; Table 7) | MIC ([20]; Table 1) | MIC ([22]; Table 1) | MIC ([23]; Table 1)
0.25 µg/mL: MIC in TSB ([17]; Table 7) | MIC in TSB ([20]; Table 7) | MIC ([21]; Table 1) | MIC in TSB ([22]; Table 7) | MIC in TSB ([23]; Table 7)
4 µg/mL: MIC ([7]; Mutant-14) | MIC ([12]; Mutant-5) | MIC ([13]; Mutant-7) | MIC ([14]; Mutant-13) | MIC ([25]; Mutant-9)
8 µg/mL: MIC ([8]; Mutant-2) | MIC ([9]; Mutant-15) | MIC ([15]; Mutant-4)
1 µg/mL: MIC ([18]; Table 1)

CC(C)C(=O)Nc1nnc(S(N)(=O)=O)s1 [CAI0011, N-(5-Sulfamoyl-1,3,4-thiadiazol-2-yl) isobutyramide]
> 64 µg/mL: MIC ([1]; Bacteroides, read-out: MIC) | MIC [2, 26] | MIC [3, 27] | MIC [4, 28] | MIC ([5]; Bacteroides, read-out: MIC) | MIC ([6]; Bifidobacterium, read-out: MIC) | MIC [11, 29] | MIC [24, 36]
1 µg/mL: MIC [17, 32] | MIC [17, 33] | MIC [18, 32] | MIC [18, 33] | MIC [21, 34] | MIC [21, 35]
2 µg/mL: MIC [16, 30] | MIC [16, 31] | MIC [19, 30] | MIC [19, 31] | MIC [20, 30] | MIC [20, 31] | MIC [22, 30] | MIC [22, 31] | MIC [23, 30] | MIC [23, 31]

CC(C)(C)C(=O)Nc1nnc(S(N)(=O)=O)s1 [CAI0010, N-(5-Sulfamoyl-1,3,4-thiadiazol-2-yl) pivalamide]
0.125 µg/mL: MIC [17, 33] | MIC [20, 31]
4 µg/mL: MIC ([7]; Enterococcus) | MIC ([9]; Enterococcus) | MIC ([12]; Enterococcus) | MIC ([13]; Enterococcus) | MIC ([14]; Enterococcus)
16 µg/mL: MIC ([10]; Enterococcus)
0.5 µg/mL: MIC [16, 30] | MIC [16, 31] | MIC [17, 32] | MIC [19, 30] | MIC [20, 30] | MIC [21, 34] | MIC [22, 30]
> 64 µg/mL: MIC ([1]; Bacteroides, read-out: MIC) | MIC [2, 26] | MIC [3, 27] | MIC [4, 28] | MIC ([5]; Bacteroides, read-out: MIC) | MIC ([6]; Bifidobacterium, read-out: MIC) | MIC [11, 29] | MIC [24, 36]
0.25 µg/mL: MIC [18, 33] | MIC [19, 31] | MIC [21, 35] | MIC [22, 31] | MIC [23, 31]
8 µg/mL: MIC ([8]; Enterococcus) | MIC ([15]; Enterococcus) | MIC ([25]; Enterococcus)
1 µg/mL: MIC [18, 32] | MIC [23, 30]

NS(=O)(=O)c1nnc(NC(=O)CCC2CCCC2)s1 [CAI0015]
1 µg/mL: MIC ([7]; Mutant-14) | MIC ([9]; Mutant-15) | MIC ([10]; Mutant-6) | MIC ([12]; Mutant-5) | MIC ([14]; Mutant-13) | MIC ([15]; Mutant-4) | MIC ([18]; Table 1) | MIC ([25]; Mutant-9)
0.06 µg/mL: MIC in TSB ([16]; Table 7) | MIC in TSB ([17]; Table 7) | MIC ([19]; Table 1) | MIC in TSB ([19]; Table 7) | MIC in TSB ([20]; Table 7) | MIC in TSB ([21]; Table 7) | MIC in TSB ([22]; Table 7) | MIC ([23]; Table 1) | MIC in TSB ([23]; Table 7)
0.125 µg/mL: MIC ([16]; Table 1) | MIC ([17]; Table 1) | MIC in TSB ([18]; Table 7) | MIC ([20]; Table 1) | MIC ([22]; Table 1)
2 µg/mL: MIC ([8]; Mutant-2)
>64 µg/mL: MIC [1] | MIC [2] | MIC [3] | MIC [4] | MIC [5] | MIC [6] | MIC [11] | MIC [24]
0.25 µg/mL: MIC ([13]; Mutant-7) | MIC ([21]; Table 1)

CC(=O)Nc1nnc(S(N)(=O)=O)s1 [Acetazolamide, reference compound]
32 µg/mL: MIC ([7]; Enterococcus) | MIC ([9]; Enterococcus) | MIC ([10]; Enterococcus) | MIC ([12]; Enterococcus) | MIC ([14]; Enterococcus) | MIC ([15]; Enterococcus)
4 µg/mL: MIC [16, 30] | MIC [16, 31] | MIC [19, 30] | MIC [19, 31] | MIC [23, 30] | MIC [23, 31]
16 µg/mL: MIC ([8]; Enterococcus) | MIC ([13]; Enterococcus) | MIC ([25]; Enterococcus)
> 64 µg/mL: MIC ([1]; Bacteroides, read-out: MIC) | MIC [2, 26] | MIC [3, 27] | MIC [4, 28] | MIC ([5]; Bacteroides, read-out: MIC) | MIC ([6]; Bifidobacterium, read-out: MIC) | MIC [11, 29] | MIC [24, 36]
2 µg/mL: MIC [17, 32] | MIC [17, 33] | MIC [18, 32] | MIC [18, 33] | MIC [20, 30] | MIC [20, 31] | MIC [21, 34] | MIC [21, 35] | MIC [22, 30] | MIC [22, 31]

CC(=O)NC[C@H]1CN(c2ccc(N3CCOCC3)c(F)c2)C(=O)O1 [Linezolid, reference compound]
1 µg/mL: MIC [4, 28] | MIC ([5]; Bacteroides, read-out: MIC) | MIC [16, 30] | MIC [16, 31] | MIC [19, 30] | MIC [19, 31] | MIC [20, 30] | MIC [20, 31] | MIC [22, 30] | MIC [22, 31] | MIC [23, 30] | MIC [23, 31]
≤ 0.5 µg/mL: MIC [2, 26] | MIC ([6]; Bifidobacterium, read-out: MIC) | MIC [11, 29]
8 µg/mL: MIC ([9]; Enterococcus)
4 µg/mL: MIC ([7]; Enterococcus) | MIC ([8]; Enterococcus) | MIC ([10]; Enterococcus) | MIC ([12]; Enterococcus) | MIC ([14]; Enterococcus) | MIC ([15]; Enterococcus) | MIC ([25]; Enterococcus)
2 µg/mL: MIC ([1]; Bacteroides, read-out: MIC) | MIC [3, 27] | MIC ([13]; Enterococcus) | MIC [24, 36]
